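Cultured in 96-well plates, cells were exposed to test compound for 48 hours across five concentrations. GI50: concentration for 50% inhibition of growth.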 Activity calls are given as the source filed them. Cut-off read from the data, not from the text of the source: active = GI50 up to about 1.1 µM and inactive = higher.
Legend:
Assay in all cases: NCI anticancer screen, dose series, 48 h
DLD-1 = tested on: DLD-1
DMS-114 = tested on: DMS-114
DMS-273 = tested on: DMS-273
KM-20L2 = tested on: KM-20L2
LXFL 529 = tested on: LXFL 529
RXF 631 = tested on: RXF 631
SNB-78 = tested on: SNB-78
XF498 = tested on: XF498
HOP-18 = tested on: HOP-18

Measured: GI50

CCOC(=O)C(C(C)=O)C1CC=CC1 (stereo unspecified)
inactive: DLD-1 > 100 µM | DMS-114 > 100 µM | DMS-273 > 100 µM | KM-20L2 > 100 µM | LXFL 529 > 100 µM | RXF 631 > 100 µM | SNB-78 > 100 µM | XF498 > 100 µM

O=c1[nH]c(=O)n(C2CC(O)C(CO)O2)cc1C#Cc1cc(C(F)(F)F)cc(C(F)(F)F)c1 (stereo unspecified)
inactive: DLD-1 > 29.4 µM | DMS-114 > 31.2 µM | KM-20L2 > 45.4 µM | LXFL 529 > 30.1 µM | RXF 631 21.3 µM | SNB-78 50.7 µM | XF498 21 µM

Cc1cc(S(=O)(=O)O)c(NC(=O)C(=O)C2C=CCS2(=O)=O)cc1Cl (stereo unspecified)
inactive: DLD-1 > 100 µM | DMS-114 > 100 µM | DMS-273 > 100 µM | HOP-18 > 100 µM | KM-20L2 > 100 µM | LXFL 529 > 100 µM | SNB-78 > 100 µM | XF498 > 100 µM

CC1(C)CCC[C@@]2(C)C1C[C@H](O)[C@@]1(C)O[C@@](C)([C@H](O)CO)CCC21 (stereo partly specified)
inactive: DMS-114 25.3 µM | DMS-273 44.2 µM | HOP-18 26.1 µM | KM-20L2 40.5 µM | LXFL 529 43.2 µM | RXF 631 86.9 µM | SNB-78 40.3 µM | XF498 38.7 µM

COC1C(=[N+]=[N-])C(=O)NC(=O)N1C1OC(COC(c2ccccc2)(c2ccccc2)c2ccccc2)C(O)C1O (stereo unspecified)
inactive: DLD-1 17.3 µM | HOP-18 21.1 µM | KM-20L2 17.2 µM | LXFL 529 17.6 µM | SNB-78 18 µM
